Experimental data: patent US7094405B1, “Peptides which elicit a high neutralizing antibody titer, cytotoxic T lymphocyte response and T helper cell response in a broad range of MHC type recipients” (priority 1986, dated 2006)
Like-named read-outs stand apart in the source and are kept apart here.

Assays:
[1] = tested on: peripheral blood lymphocytes of HIV-positive, influenza positive humans; settings: cited from earlier work; for tested cases with significant IL-2 responses: peripheral blood lymphocytes of HIV-positive, influenza positive humans, previous study (42)
[2] = tested on: gp160-expressing 15-12 BALB/c fibroblast cell line; type: cell-based; settings: spleen cells of B10.A(5R) mice immunized with 20 nmoles PCLUS4-18, restimulated 6 days
Protocol: The resulting effector cells were tested on the gp160-expressing 15-12 BALB/c fibroblast cell line or on neo-only transfected fibroblast cells (not shown) as targets (FIG. 9B). […] SEM of triplicate wells was less than 7.3% of the mean.

HIV-1 IIIB = experiment: Neutralization of HIV-1 IIIB by immune sera, quantitative infectivity microassay using CEM-SS cells; type: in vivo; settings: 31 days after single immunization with 20 nanomole peptide
Protocol: (§1) Immunizations. Mice were immunized intraperitoneally with 20 nanomoles of each peptide emulsified 1:1 in Freund's Complete Adjuvant (CFA). At days 21 and 31 post immunization blood was drawn by retroorbital bleed, allowed to clot and the serum removed and frozen at −20° C.
Neutralization assays of HIV-1. The quantitative infectivity microassay using CEM-SS cells was performed as described previously (52). […] The mixtures were added to duplicate wells containing 5×10^4 DEAE-dextran treated CEM-SS cells for 1 h at 37° C., after which the virus-antibody mixtures were removed and replaced with medium, and the cells cultured only in complete medium for 5 days (for HIV-1 IIIB) or 4 days (for HIV-1 MN, determined to be optimal for each virus strain) at 37° C. in 5% CO2. Units of infectious virus were quantitated by subsequent syncytia formation of infected cells under an inverted microscope. […] The assay measures neutralization of cell-free virus in the first incubation, not inhibition of syncytium formation, which is only the readout for enumerating infectious virus. […]

[3] = tested on: BALB/c.3T3 transfectants expressing the whole gp160 protein (cell line 15-12) or P18 pulsed 18neo cells; type: in vivo, mice
Protocol: Mice 8-20 weeks old were immunized subcutaneously at the tail base with 20 nmoles of each peptide mixed with QS21 (15 μg), the highly purified saponin fraction from the soap bark tree Quillaja saponaria, which retains the greatest adjuvant activity but is non-toxic (103). […] Cytolytic activity of in vitro secondary CTL was measured as described previously (104) using a 6 hr. assay with ^51Cr-labeled targets. […] Maximum release was determined from supernatants of cells that were lysed by the addition of 5% Triton X-100. Spontaneous release was determined from targets cells incubated without added effectors cells. The assay was performed in triplicate, with 5000 target cells per well.
Background lysis on control 18neo fibroblasts in the absence of peptide was less than 8%. SEM of triplicate wells was less than 7.2% of the mean.

Peptide 18 = settings: for ELISA: Mean p18 Specific Absorbance ± S.E.M.: 31 days after single immunization with 20 nanomole peptide, 5 mouse sera at 1:1000 serum dilution
Protocol: ELISA. Wells of round bottom flexible PVC microtiter plates (#3912 Falcon Labware, Oxnard, Calif.) were coated overnight at 4° C. with 100 μl of 10 μM Peptide 18, substituted peptide 18, cluster peptide 3, cluster peptide 6, 0.2 μg/ml recombinant gp 120 (ABT, Advanced Biotechnologies, Mass.) or 2 μM sperm whale myoglobin in 0.1 M carbonate buffer pH 9.6. […] The plates were blocked with 1% BSA in phosphate buffered saline (PBS) for 1-1.5 h. at 4° C. and washed with PBS containing 0.05% Tween 20 and 1% BSA (PBSTB). Next, 100 μl of test serum was added to duplicate wells and incubated for 1-1.5 h. at 4° C. Test sera were assayed at 10 fold dilutions in PBSTB ranging from 1:100-1:10,000. The wells were then washed with 200 μl PBSTB 10 times using an automatic plate washer (BioRad Model 1550) and incubated for 1 h at 4° C. with 100 μl alkaline phosphatase-conjugated goat anti-mouse IgG (Promega, Madison, Wis.) diluted 1:7500 in PBSTB. After 10 washes, bound antibodies were detected by the addition of 100 μl of 1 mg/ml paranitrophenyl phosphate as substrate. The optical density at 405 nm was read with an ELISA reader. Specific absorbance was determined as the mean optical density at 405 nm on the relevant antigen coated wells minus the optical density 405 nm on nonrelevant sperm whale myoglobin coated wells.
as §1

In the case of “AVAEGTDRVIEVVQGAYRAIRHIPRRIRQGLER [PCLUS6]”, the “tested cases with significant IL-2 responses” value [1] is given as 58%.

For EQMHEDIISLWDQSLKPCVK [PCLUS 1], the “donors in which IL-2 production was stimulated” value ([1]; HIV seropositive, flu-positive donors) is given as 23 of 36 and the “tested cases with significant IL-2 responses” value [1] is given as 64%.

In the case of KQIINMWQEVGKAMYAPPISGQIR [PCLUS3], the “tested cases with significant IL-2 responses” value [1] is given as 73%.

For RDNWRSELYKYKVVKIEPLGVAPT [PCLUS4], the “induction of CTL activity on in vitro restimulation (in words)” value [2] is listed as “did not induce any CTL activity” and the “tested cases with significant IL-2 responses” value [1] is listed as 52%.

In the case of RIQRGPGRAFVTIGK [Peptide P18], the “No. of mice with positive neutralizing titers/total tested” value (HIV-1 IIIB; B10.BR or B10.A (A^kE^k) mice) is reported as “(0/5)”, the “No. of mice with positive neutralizing titers/total tested” value (HIV-1 IIIB; BALB/c or B10.D2 (A^dE^d) mice) is reported as “(0/5)” and the “CTL activity, linkage requirement experiment (in words)” value ([3]; B10.D2 (PCLUS3 series) or B10.A(5R) (PCLUS4 series) mice, QS21, restimulated with 0.1 μM P18 and rIL2) is reported as “negligible”. For the same sequence, the “CTL activity after single immunization in QS21 (in words)” value ([3]; B10.D2, B10.A(5R), B10.S(9R) mice, restimulated with P18, E:T up to 60:1) was “only marginal CTL activity”, the “induction of CTL activity on in vitro restimulation (in words)” value [2] was “not” and the “ELISA: Mean p18 Specific Absorbance ± S.E.M.” value (Peptide 18; B10.A(5R) (A^bE^b) mice) was 0.00. For the same sequence, the “ELISA: Mean p18 Specific Absorbance ± S.E.M.” value (Peptide 18; B10.BR or B10.A (A^kE^k) mice) was 0.00, the “ELISA: Mean p18 Specific Absorbance ± S.E.M.” value (Peptide 18; B10.HTT (A^aE^a) mice) was 0.00 and the “ELISA: Mean p18 Specific Absorbance ± S.E.M.” value (Peptide 18; BALB/c or B10.D2 (A^dE^d) mice) was 0.00. The “peptide 18 specific antibody response (in words)” value (Peptide 18; mice of four strains immunized with 20 nanomoles of construct) was “no peptide 18 specific antibody was detected”.
